Calls of active or inactive are those of the source.
Tests used:
[1] = target: T1, Coagulation factor XII (Homo sapiens, UniProt P00748); assay type: functional;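 further: activated factor XIIa alpha cleaving a fluorogenic AMC peptide substrate; inhibitor potency from loss of enzyme activity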
T1 sequence (P00748 whole entry): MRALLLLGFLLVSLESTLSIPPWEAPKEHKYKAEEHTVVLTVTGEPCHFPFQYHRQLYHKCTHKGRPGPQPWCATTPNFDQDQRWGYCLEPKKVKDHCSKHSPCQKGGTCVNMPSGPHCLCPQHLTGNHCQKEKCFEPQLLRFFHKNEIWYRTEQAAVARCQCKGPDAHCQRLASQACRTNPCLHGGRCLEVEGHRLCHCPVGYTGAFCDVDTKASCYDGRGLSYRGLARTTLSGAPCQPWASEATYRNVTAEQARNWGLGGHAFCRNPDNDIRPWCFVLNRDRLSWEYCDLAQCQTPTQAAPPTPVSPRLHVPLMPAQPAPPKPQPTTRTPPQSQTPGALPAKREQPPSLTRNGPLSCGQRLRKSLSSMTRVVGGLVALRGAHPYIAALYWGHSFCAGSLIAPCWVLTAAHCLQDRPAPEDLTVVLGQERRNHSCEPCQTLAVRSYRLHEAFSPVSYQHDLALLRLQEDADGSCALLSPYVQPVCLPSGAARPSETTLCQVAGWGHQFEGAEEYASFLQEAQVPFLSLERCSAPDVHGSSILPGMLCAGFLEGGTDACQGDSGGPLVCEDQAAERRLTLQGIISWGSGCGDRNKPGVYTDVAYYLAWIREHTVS

[2] = target: T2, Heat shock factor protein 1 (Mus musculus, UniProt P38532); test: inhibition of MG132-induced HSE-luciferase signal, confirmation, cell-based, NIH3T3, luminescence, dose retest (AID 2382); assay type: functional;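 further: NIH3T3 fibroblasts with HSF1-driven luciferase reporter stressed by proteasome inhibitor MG132; luminescence from HSF1-driven luciferase expression after 8 hours of MG132 stress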
T2 sequence (P38532 whole entry): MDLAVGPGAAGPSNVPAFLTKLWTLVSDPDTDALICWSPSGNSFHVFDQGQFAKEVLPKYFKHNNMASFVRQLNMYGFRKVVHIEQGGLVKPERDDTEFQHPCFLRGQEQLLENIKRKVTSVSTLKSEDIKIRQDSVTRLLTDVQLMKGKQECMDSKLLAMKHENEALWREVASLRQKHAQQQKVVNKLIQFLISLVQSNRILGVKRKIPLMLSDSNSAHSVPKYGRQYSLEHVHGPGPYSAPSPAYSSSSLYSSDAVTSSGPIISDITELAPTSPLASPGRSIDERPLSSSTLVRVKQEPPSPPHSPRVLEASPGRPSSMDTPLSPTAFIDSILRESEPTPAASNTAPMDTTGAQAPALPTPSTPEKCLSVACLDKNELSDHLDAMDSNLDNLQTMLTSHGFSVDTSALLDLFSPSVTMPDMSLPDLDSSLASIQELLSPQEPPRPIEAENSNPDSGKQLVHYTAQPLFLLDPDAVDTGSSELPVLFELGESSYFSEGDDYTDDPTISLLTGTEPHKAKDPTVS

[3] = target: T3, Hepatocyte nuclear factor 4-alpha (Homo sapiens, UniProt P41235); assay type: functional, cell-based;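 further: biochemical luminescence-based dose-response counterscreen measuring inhibition of HNF4 dimerization, run alongside a screen for blockers of ABHD5–perilipin-5 interaction; split luciferase complementation of HNF4 fusion proteins in cell lysate measuring dimerization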
T3 sequence (P41235 whole entry): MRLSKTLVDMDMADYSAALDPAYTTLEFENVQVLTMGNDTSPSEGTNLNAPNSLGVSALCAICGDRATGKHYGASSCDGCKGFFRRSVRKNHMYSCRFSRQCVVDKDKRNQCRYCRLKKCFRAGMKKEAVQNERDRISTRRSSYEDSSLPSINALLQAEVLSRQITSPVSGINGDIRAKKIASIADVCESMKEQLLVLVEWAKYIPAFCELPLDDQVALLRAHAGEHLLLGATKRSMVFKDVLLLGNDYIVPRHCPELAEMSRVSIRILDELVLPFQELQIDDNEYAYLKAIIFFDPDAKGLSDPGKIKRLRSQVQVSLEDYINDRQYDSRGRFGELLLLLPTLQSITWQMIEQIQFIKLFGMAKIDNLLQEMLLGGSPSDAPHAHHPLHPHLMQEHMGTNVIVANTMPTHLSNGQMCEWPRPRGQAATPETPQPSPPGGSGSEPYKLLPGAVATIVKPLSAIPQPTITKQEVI

[4] = target: T4, Long-chain-fatty-acid--AMP ligase FadD28 (Mycobacterium tuberculosis, UniProt P9WQ59); test: Fluorescence polarization aasay to screen for inhibitors that compete for the binding of FadD28 to a bisubstrate Measured in Biochemical System Using Plate Reader - 2147-01_Inhibitor_Dose_CherryPick_Activity.; assay type: functional, Mycobacterium tuberculosis H37Rv
T4 sequence (P9WQ59 whole entry): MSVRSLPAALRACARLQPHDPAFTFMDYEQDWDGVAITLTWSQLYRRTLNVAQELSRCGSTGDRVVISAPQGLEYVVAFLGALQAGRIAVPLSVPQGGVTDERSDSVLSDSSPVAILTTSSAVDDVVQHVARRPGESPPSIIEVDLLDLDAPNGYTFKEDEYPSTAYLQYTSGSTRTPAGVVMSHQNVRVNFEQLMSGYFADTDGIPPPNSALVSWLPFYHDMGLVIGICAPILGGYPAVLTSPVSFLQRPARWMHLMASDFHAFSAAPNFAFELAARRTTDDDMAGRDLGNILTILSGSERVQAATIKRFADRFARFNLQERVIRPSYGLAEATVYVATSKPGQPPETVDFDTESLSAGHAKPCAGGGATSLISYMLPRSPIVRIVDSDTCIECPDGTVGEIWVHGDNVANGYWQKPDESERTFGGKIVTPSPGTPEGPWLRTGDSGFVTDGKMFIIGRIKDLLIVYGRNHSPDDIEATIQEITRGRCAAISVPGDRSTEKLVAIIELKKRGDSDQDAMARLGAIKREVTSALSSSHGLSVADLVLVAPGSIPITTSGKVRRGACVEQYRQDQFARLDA

[5] = target: T5, Adenosylmethionine-8-amino-7-oxononanoate aminotransferase (Mycobacterium tuberculosis, UniProt P9WQ81); test: Mycobacterium tuberculosis BioA enzyme inhibitor Measured in Biochemical System Using Plate Reader - 2163-02_Inhibitor_Dose_CherryPick_Activity.; assay type: functional, Mycobacterium tuberculosis UT205
T5 sequence (P9WQ81 whole entry): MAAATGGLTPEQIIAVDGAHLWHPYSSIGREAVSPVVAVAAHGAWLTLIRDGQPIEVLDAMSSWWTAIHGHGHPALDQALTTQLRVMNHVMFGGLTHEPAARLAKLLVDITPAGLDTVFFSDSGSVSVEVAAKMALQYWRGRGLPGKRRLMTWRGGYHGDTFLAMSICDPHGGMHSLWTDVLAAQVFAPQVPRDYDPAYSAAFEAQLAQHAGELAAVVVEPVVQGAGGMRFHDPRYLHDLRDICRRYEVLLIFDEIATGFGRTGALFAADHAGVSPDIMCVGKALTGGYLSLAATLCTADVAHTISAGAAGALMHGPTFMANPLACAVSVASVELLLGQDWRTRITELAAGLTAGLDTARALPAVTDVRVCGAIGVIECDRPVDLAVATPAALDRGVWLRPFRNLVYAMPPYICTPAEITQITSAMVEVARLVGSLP

[6] = target: T6, Carboxy-terminal domain RNA polymerase II polypeptide A small phosphatase 1 (Homo sapiens, UniProt Q9GZU7); test: inhibitors of CTDSP1, concentration-response testing, biochemical assay, absorbance-based, actives from ultra-high-throughput screening (AID 540297); assay type: functional
T6 sequence (Q9GZU7 whole entry): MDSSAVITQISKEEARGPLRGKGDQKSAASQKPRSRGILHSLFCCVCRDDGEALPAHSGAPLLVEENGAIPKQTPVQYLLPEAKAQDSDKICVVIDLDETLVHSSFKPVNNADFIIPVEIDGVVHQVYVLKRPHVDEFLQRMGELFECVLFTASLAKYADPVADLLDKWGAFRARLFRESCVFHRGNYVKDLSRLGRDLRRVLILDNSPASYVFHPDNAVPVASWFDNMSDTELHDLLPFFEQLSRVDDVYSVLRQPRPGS

[7] = target: Genome polyprotein (dengue virus type 2, UniProt P29990); test: Dengue-2 NS5 methyltransferase inhibitors, primary screen, biochemical, confirmation dose response (AID 588689); assay type: functional
[8] = A cytotoxicity screen of small molecule inhibitors of the PhoP region in Salmonella typhi identified in the primary screen. [Related pubchem assays: 1850, 1864, 1985 ]; assay type: functional
[9] = Luminescence Cell-Based Dose Response HTS to Identify Inhibitors of 5'UTR Stem-Loop Driven Prion Protein mRNA Translation in H4 Neuroglioblastoma Cells. [Related pubchem assays: 1827 (Project Summary), 1813 (Primary HTS)]; assay type: functional
[10] = cytotoxicity in HEK-293T cells, dose response, cytotoxicity control for TCR NF-kB inhibitor project, luminescence, T-cell screen hits (AID 489026); assay type: functional, cell-based;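 further: cells exposed to compound about 14 hours before the viability readout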
[11] = inhibitors of SNCA 5'UTR-driven reporter translation, confirmation, H4 neuroglioma cells, luminescence (AID 1988); assay type: functional, cell-based
[12] = inhibitors of firefly luciferase expression or activity, dose response, H4 neuroglioma cells, luminescence (AID 1990); assay type: functional, cell-based
[13] = test system: BJ; test: cytotoxicity toward BJ-TERT-LT-ST fibroblasts, dose response, cell-based, RAS-independent, luminescence (AID 1935); assay type: functional; details: Homo sapiens;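 further: BJ fibroblasts immortalized with TERT plus LT and ST oncogenes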
[14] = test system: BJ; test: cytotoxicity toward BJ-TERT fibroblasts, dose response, cell-based, RAS-independent, luminescence (AID 1933); assay type: functional; details: Homo sapiens
[15] = cytotoxicity toward DRD oncogenic fibroblasts, dose response, cell-based, non-viral oncogenic, luminescence (AID 1934); assay type: functional; details: Homo sapiens
[16] = target: T7, Protein skinhead-1 (Caenorhabditis elegans, UniProt P34707); assay type: functional
T7 sequence (P34707 whole entry): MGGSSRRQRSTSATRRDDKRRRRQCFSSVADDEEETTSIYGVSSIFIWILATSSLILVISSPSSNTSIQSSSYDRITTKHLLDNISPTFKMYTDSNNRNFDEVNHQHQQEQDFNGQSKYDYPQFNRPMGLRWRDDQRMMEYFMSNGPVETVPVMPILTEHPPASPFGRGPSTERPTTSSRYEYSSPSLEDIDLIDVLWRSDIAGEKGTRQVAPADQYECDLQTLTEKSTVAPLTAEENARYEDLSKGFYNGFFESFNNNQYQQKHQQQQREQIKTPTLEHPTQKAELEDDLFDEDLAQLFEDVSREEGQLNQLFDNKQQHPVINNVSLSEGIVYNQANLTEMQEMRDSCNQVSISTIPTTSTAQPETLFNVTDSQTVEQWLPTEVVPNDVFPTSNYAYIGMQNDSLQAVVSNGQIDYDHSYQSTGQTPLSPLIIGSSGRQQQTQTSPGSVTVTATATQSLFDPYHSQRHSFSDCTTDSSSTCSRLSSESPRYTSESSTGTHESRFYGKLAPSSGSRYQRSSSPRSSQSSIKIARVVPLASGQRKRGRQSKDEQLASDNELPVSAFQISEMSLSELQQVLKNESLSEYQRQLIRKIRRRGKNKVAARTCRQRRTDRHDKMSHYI

[17] = test system: BJ; test: cells; assay type: functional, cell-based; details: Homo sapiens
[18] = target: FAD-linked sulfhydryl oxidase ALR (Homo sapiens, UniProt P55789); test: inhibitors of human ALR sulfhydryl oxidase, dose response, biochemical, H2O2 detection, luminescence, cherry-pick (AID 493248)
[19] = target: DNA dC->dU-editing enzyme APOBEC-3G (Homo sapiens, UniProt Q9HC16); test: Dose Response confirmation of small molecule APOBEC3G DNA Deaminase Inhibitors via a fluorescence-based single-stranded DNA deaminase assay. [Related pubchem assays (depositor defined):AID493012, AID493028]; assay type: functional
Chain of DNA dC->dU-editing enzyme APOBEC-3G (Q9HC16 whole entry): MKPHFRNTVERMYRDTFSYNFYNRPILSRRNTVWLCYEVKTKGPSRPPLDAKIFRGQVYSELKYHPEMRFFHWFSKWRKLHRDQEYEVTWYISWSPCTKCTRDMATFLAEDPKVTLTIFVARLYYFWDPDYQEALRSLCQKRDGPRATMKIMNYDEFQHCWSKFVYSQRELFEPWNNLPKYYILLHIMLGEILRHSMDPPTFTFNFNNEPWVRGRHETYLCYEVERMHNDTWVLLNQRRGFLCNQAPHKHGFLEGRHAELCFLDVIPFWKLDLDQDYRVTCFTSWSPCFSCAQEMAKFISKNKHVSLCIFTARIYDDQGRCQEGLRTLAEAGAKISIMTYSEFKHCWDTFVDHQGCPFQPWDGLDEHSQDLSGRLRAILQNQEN

Chain of FAD-linked sulfhydryl oxidase ALR (P55789 whole entry): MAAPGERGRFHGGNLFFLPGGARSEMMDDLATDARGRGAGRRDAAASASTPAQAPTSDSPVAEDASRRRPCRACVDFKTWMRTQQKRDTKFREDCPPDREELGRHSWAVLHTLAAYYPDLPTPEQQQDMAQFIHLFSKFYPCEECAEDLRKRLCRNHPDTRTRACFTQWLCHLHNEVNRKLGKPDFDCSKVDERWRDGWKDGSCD
Chain of Genome polyprotein (P29990 2492-3391 limits assumed): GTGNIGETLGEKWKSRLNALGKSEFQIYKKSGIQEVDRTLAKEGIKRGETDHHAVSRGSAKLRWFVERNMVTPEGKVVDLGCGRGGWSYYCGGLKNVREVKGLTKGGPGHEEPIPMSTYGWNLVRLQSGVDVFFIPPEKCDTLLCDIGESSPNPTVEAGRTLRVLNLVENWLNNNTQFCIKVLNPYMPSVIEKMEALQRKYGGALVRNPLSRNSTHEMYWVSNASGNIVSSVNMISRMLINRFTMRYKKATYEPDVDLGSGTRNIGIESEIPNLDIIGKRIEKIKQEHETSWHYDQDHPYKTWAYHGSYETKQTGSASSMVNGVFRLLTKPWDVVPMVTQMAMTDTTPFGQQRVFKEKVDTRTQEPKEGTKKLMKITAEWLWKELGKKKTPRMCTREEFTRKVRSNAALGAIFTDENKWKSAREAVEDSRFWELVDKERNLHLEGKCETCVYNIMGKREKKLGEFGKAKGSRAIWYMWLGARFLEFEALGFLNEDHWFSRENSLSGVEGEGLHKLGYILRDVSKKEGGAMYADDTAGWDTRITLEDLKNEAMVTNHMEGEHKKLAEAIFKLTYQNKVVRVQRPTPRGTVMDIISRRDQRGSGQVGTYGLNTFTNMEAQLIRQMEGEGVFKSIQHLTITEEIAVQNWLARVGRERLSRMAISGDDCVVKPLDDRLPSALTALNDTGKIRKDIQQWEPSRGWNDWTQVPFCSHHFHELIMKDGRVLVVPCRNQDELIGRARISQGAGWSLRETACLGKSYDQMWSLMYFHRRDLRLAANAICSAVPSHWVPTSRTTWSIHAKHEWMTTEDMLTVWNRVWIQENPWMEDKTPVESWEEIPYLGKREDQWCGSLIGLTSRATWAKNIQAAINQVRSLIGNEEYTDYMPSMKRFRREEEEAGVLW

CC1=C(C(=O)Nc2ccc(C)cc2)C(c2ccc(C)o2)C2=C(O)CC(C)(C)CC2=N1 (stereo not drawn)
IC50 [1]: > 50 µM (inactive) | EC50 [2]: > 195 µM (not active)

O=C(NCc1ccccc1)C(c1cccc2ccccc12)n1c(=O)c(-c2ccco2)nc2ccccc21 (stereo not drawn)
IC50 [3]: 2.77 µM (active)

CN(C)c1ccc(/C=C2/C(=O)N(CCc3ccc(F)cc3)C(=O)N=C2O)cc1
AC50 [4]: 23.4 µM (active)

Cc1cccc(-c2ccc3c(c2)C2CC3CCN2)c1 (stereo not drawn)
AC50 [5]: 4.64 µM (active)

CCOc1cc(/C=N/NC2=NC(=O)C(CC(=O)O)S2)ccc1OCc1ccc(Cl)cc1 (stereo not drawn)
IC50 [6]: 7.12 µM (active) | IC50 [7]: 47.9 µM (active)

COc1ccccc1NC(=O)Cn1cnc2c(oc3nc4c(cc32)CCCC4)c1=O
AC50 [4]: 77.8 µM (active)

Cc1c(C)n(C)c2ccc(C(=O)NCc3cccs3)cc12
EC50 [8]: > 50 µM (active) | AC50 [4]: 56.8 µM (active)

CC(C)(C)NC(=O)C(c1ccnc2ccccc12)n1c(=O)c(-c2ccco2)nc2ccccc21 (stereo not drawn)
IC50 [3]: 3.18 µM (active)

Cc1cccc(N2N=C(C(=O)N3CC(=O)Nc4ccccc43)CCC2=O)c1
IC50 [1]: > 50 µM (inactive)

Cc1nc(Nc2nc(O)c3c(n2)CCC3)nc2ccccc12
EC50 [9]: > 120 µM (not active) | IC50 [10]: > 80 µM (inactive) | EC50 [11]: 9.61 µM (active) | EC50 [12]: > 120 µM (not active)

COC(=O)C(NC(=O)c1ccco1)(Nc1nc(C)cs1)C(F)(F)F (stereo not drawn)
IC50 [1]: > 50 µM (inactive)

O=C(Nc1ccccc1)N1CCN(Cc2ccc3c(c2)OCO3)CC1
AC50 [5]: 2.63 µM (active)

O=C(c1ccc(Cl)cc1)c1cc([N+](=O)[O-])ccc1N1CCOCC1
IC50 [10]: > 80 µM (inactive) | EC50 [13]: 1.19 µM (inconclusive) | EC50 [14]: 1.51 µM (active) | EC50 [15]: 1.17 µM (active) | IC50 [16]: 56.9 µM (inactive) | EC50 [17]: 19 µM (active)

Oc1c(C(c2ccccc2)N2CCCCC2)ccc2ccccc12 (stereo not drawn)
IC50 [3]: 0.828 µM (active)

O=C(O)c1ccc(COc2ccccc2/C=C2\NC(=O)N(Cc3ccc(F)cc3)C2=O)cc1
IC50 [6]: 6.42 µM (active)

CCCCn1c(-c2ccco2)n[nH]c1=S
AC50 [18]: 33.6 µM (active) | IC50 [19]: 8.1 µM (active)

COC(=O)c1ccc(Oc2nc(NC(C)C)nc(SC)n2)cc1
IC50 [1]: > 50 µM (inactive)

CCc1c(C)nc2ncnn2c1Nc1ccc(C#N)c(Cl)c1
AC50 [5]: 10.5 µM (active)

Cc1cc(Cl)c(S(=O)(=O)NC(C(=O)O)c2ccccc2)cc1OCC(N)=O (stereo not drawn)
IC50 [6]: 12.9 µM (active)

O=[N+]([O-])c1ccc(Cl)c(/C=N/n2c(S)nnc2-c2ccncc2)c1
IC50 [19]: 4.79 µM (active)

COc1ccc(/C=N/NC(=O)CCn2cnc3ccccc32)cc1
IC50 [1]: > 50 µM (inactive)
